Assay results as given in patent US10004711B2, “Methods and compositions comprising 10-hydroxy-2-decenoic acid” (DSM IP ASSETS B.V., priority 2014, dated 2018).

Legend:
[1] = test system: Neurons from the brain's hippocampus; test: In vitro hypoxia cell death (ethidium homodimer); format: cell-based, rat; settings: for Cell Death (% Control): hypoxia (<0.3% O2) 48 h
Procedure: (§1) Neurons from the brain's hippocampus were derived from E17 pups and incubated for 7 days. The neurons were then pre-treated with QBA for 48 hours and subsequently exposed to a hypoxia (<0.3% O2) for 48 hours. The cultures were stained with calcein AM, a marker of live cells, and with ethidium homodimer, a marker for dead cells. The fluorescence of each of these markers was then quantitated with a fluorimeter.

[2] = test system: Neurons from the brain's hippocampus; test: In vitro hypoxia cell health (calcein AM); format: cell-based, rat; settings: for Cell Viability (% Control): hypoxia (<0.3% O2) 48 h
Procedure: as §1

[3] = test system: 19-20 month-old male rats; test: Elevated plus-maze, rats fed QBA alone or QBA+DHA; format: in vivo, rat; settings: DHA 0.00
Procedure: Rats were fed QBA and subjected to an elevated plus-maze. The elevated plus-maze was elevated ˜85 cm above the floor and consisted of two open and two closed arms of the same size (50×10 cm). The closed arms were surrounded by walls 40 cm high, and the arms were constructed of black acrylic slabs that radiated from a central platform (10×10 cm) to form a plus sign. Each rat was placed in the central platform facing one of the open arms, and its behavior was recorded during a 5-min testing period with video capture software. More time spent in the open arms is an indication of reduced anxiety-like state. Rats were tested at 18 months old (N=11-13 per group).
The dose-response characteristics of 10-Hydroxy-2-decenoic acid's (QBA's) in combination with DHA for potential brain health benefits during aging were assessed for mood in 19-20 month-old male rats (N=11-14 per group). Rats were fed QBA alone or QBA+DHA and subjected to an elevated plus-maze.

[4] = test system: Neurons from the brain's hippocampus; test: Glutamate toxicity, cell death (propidium iodide); format: cell-based, rat; settings: for Cell Death (% Control): glutamate 25 μM 24 h
Procedure: Neurons from the brain's hippocampus were derived from E17 pups and incubated for 7 days. The cells were pre-treated with QBA for 48 hours and subsequently challenged with glutamate (25 μM) for 24 hours. The cultures were then stained with propidium iodide, a marker of cell death, and with tetramethylrhodamine ethyl ester (TMRE), a marker for mitochondrial health. The fluorescence of each of these markers was then quantitated with a fluorimeter.

[5] = Weight after Barnes maze psychological stress (Example 9); format: in vivo, rat
Procedure: Aged male rats were fed 10-Hydroxy-2-decenoic acid (QBA) for approximately […] from 12-months to 20-months of age and the weight of rats was recorded (N=11-14 per group). During the last month of QBA feeding animals were subjected to the psychological stress of the Barnes maze.

older rats = test: Open field test, older rats fed QBA; format: in vivo, rat; settings: for Center Entries (#): rats 15 months old, thirty minutes
Procedure: The dose-response characteristics of 10-Hydroxy-2-decenoic acid's (QBA's) potential brain health benefits during aging were assessed for mood in older rats (18-20 months old).
In the open field test each rat was placed in a novel environment consisting of an arena measuring 100×100×40 cm. Rats were placed in the middle of the chamber and behavior in the open field was recorded for thirty minutes with a digital camera and measured by software. More time spent in the center of the area is an indication of a reduced anxiety-like state. Rats were tested at 15 months old (N=11-12 per group).

[6] = test system: Young adult female Long-Evans rats; test: Conception index of female rats with abnormal ovulatory cycles; format: in vivo, rat; settings: for Conception Index (%): eight weeks, then mated
Procedure: Young adult female Long-Evans rats (3 months-old) with abnormal ovulatory cycles were fed diets containing 10-Hydroxy-2-decenoic acid (QBA) or no QBA for eight (8) weeks and then mated with a male rat. Female rats having normal ovulatory cycles were used as positive controls and were not fed QBA. The conception index was determined. The conception index is a measure of conception efficiency and is equal to the number of pregnancies divided by the number of discernable mating sessions multiplied by 100.

[7] = test system: RAW264.7 mouse macrophage cell line; test: TNFα levels after LPS stimulation; format: cell-based; settings: for TNFα (pg/mL)/Cell Numbers: 24 h
Procedure: (§2) Cultures of the RAW264.7 mouse macrophage cell line were pre-treated with 10-Hydroxy-2-decenoic acid (QBA) for 1 hour prior to stimulation with lipopolysaccharide (LPS, 100 ng/mL). After 24 hours of incubation, interleukin […] (IL-1β) and tumor necrosis factor-α (TNFα) levels were determined by Luminex technology and cell numbers were measured using Alamar Blue. Results are given as a ratio of cytokine concentration/cell number.

histone deacetylases = settings: Spannhoff et al. 2011; cited from earlier work
[8] = test system: RAW264.7 mouse macrophage cell line; test: IL-1β levels after LPS stimulation; format: cell-based; settings: for IL-1β (pg/mL)/Cell Numbers: 24 h
Procedure: as §2

[9] = QBA 10.00 μM pre-treatment 48 h
[10] = QBA 30.00 μM pre-treatment 48 h
[11] = QBA 100.00 μM pre-treatment 48 h
[12] = QBA 50 μM 1 h before LPS 100 ng/mL
[13] = QBA 100 μM 1 h before LPS 100 ng/mL
[14] = QBA 500 μM 1 h before LPS 100 ng/mL
[15] = QBA 1000 μM 1 h before LPS 100 ng/mL
[16] = QBA 2500 μM 1 h before LPS 100 ng/mL
[17] = QBA 5000 μM 1 h before LPS 100 ng/mL

O=C(O)C=CCCCCCCCO [QBA, 10-Hydroxy-2-decenoic acid]
Cell Death (% Control) ([1]; QBA 0.10 μM pre-treatment 48 h): 86.26 % Control
Cell Death (% Control) ([1]; QBA 0.30 μM pre-treatment 48 h): 83.62 % Control
Cell Death (% Control) ([1]; QBA 1.00 μM pre-treatment 48 h): 83.00 % Control
Cell Death (% Control) ([1]; QBA 3.00 μM pre-treatment 48 h): 82.20 % Control
Cell Death (% Control) [1, 9]: 85.13 % Control
Cell Death (% Control) [1, 10]: 82.29 % Control
Cell Death (% Control) [1, 11]: 86.39 % Control
cell death after low oxygen exposure ([1]; summary of Table 4): decreased cell death
Cell Viability (% Control) ([2]; QBA 0.10 μM pre-treatment 48 h): 109.72 % Control
Cell Viability (% Control) ([2]; QBA 0.30 μM pre-treatment 48 h): 112.76 % Control
Cell Viability (% Control) ([2]; QBA 1.00 μM pre-treatment 48 h): 118.80 % Control
Cell Viability (% Control) ([2]; QBA 3.00 μM pre-treatment 48 h): 121.04 % Control
Cell Viability (% Control) [2, 9]: 117.65 % Control
Cell Viability (% Control) [2, 10]: 115.05 % Control
Cell Viability (% Control) [2, 11]: 111.82 % Control
cell health after low oxygen exposure ([2]; summary of Table 5): increased cell health
Time (s) in Open Arm ([3]; QBA 12 mg/kg/day): 31.7 s
Time (s) in Open Arm ([3]; QBA 24 mg/kg/day): 31.7 s
Cell Death (% Control) ([4]; QBA 0.10 μM pre-treatment 48 h): 92.52 % Control
Cell Death (% Control) ([4]; QBA 0.30 μM pre-treatment 48 h): 90.43 % Control
Cell Death (% Control) ([4]; QBA 1.00 μM pre-treatment 48 h): 88.78 % Control
Cell Death (% Control) ([4]; QBA 3.00 μM pre-treatment 48 h): 94.07 % Control
Cell Death (% Control) [4, 9]: 92.78 % Control
Cell Death (% Control) [4, 10]: 90.69 % Control
Cell Death (% Control) [4, 11]: 91.76 % Control
cell death after glutamate toxicity ([4]; summary of Table 2): decreased cell death
% Change (Weight after Barnes maze) ([5]; QBA 12 mg/kg/day, behavior stress day 7): −0.15%
% Change (Weight after Barnes maze) ([5]; QBA 12 mg/kg/day, behavior stress day 14): −0.20%
% Change (Weight after Barnes maze) ([5]; QBA 12 mg/kg/day, behavior stress day 21): 0.56%
% Change (Weight after Barnes maze) ([5]; QBA 12 mg/kg/day, behavior stress day 28): 0.63%
% Change (Weight after Barnes maze) ([5]; QBA 12 mg/kg/day, behavior stress day 35): 0.87%
% Change (Weight after Barnes maze) ([5]; QBA 24 mg/kg/day, behavior stress day 7): −0.15%
% Change (Weight after Barnes maze) ([5]; QBA 24 mg/kg/day, behavior stress day 14): 0.02%
% Change (Weight after Barnes maze) ([5]; QBA 24 mg/kg/day, behavior stress day 21): 0.54%
% Change (Weight after Barnes maze) ([5]; QBA 24 mg/kg/day, behavior stress day 28): 0.74%
% Change (Weight after Barnes maze) ([5]; QBA 24 mg/kg/day, behavior stress day 35): 1.32%
weight change versus control, repeated measures ANOVA ([5]; all doses versus 0 mg/kg/day QBA or 0 mg/kg/day QBA+0.07% DHA): small but significant increase
weight loss associated with the psychological stress ([5]; summary of Table 15): mitigated weight loss
Center Entries (#) (older rats; QBA 0.4 mg/kg/day): 1.82 #
Center Entries (#) (older rats; QBA 4 mg/kg/day): 2.50 #
Center Entries (#) (older rats; QBA 12 mg/kg/day): 1.82 #
anxiety as measured by the number of center entries in the open field arena (older rats; QBA 24 mg/kg/d, 15-18-month old male rats): decreased anxiety
Center Entries (#) (older rats; QBA 24 mg/kg/day): 3.75 #
Conception Index (%) ([6]; QBA 0.4 mg/kg/day): 112.5%
Conception Index (%) ([6]; QBA 4 mg/kg/day): 107.7%
Conception Index (%) ([6]; QBA 12 mg/kg/day): 225.0%
Conception Index (%) ([6]; QBA 24 mg/kg/day): 200.0%
conception index ([6]; summary of Table 17): increased the conception index
TNFα (pg/mL)/Cell Numbers [7, 12]: 0.409 (pg/mL)/Cell Numbers
TNFα (pg/mL)/Cell Numbers [7, 13]: 0.456 (pg/mL)/Cell Numbers
TNFα (pg/mL)/Cell Numbers [7, 14]: 0.427 (pg/mL)/Cell Numbers
TNFα (pg/mL)/Cell Numbers [7, 15]: 0.261 (pg/mL)/Cell Numbers
TNFα (pg/mL)/Cell Numbers [7, 16]: 0.252 (pg/mL)/Cell Numbers
TNFα (pg/mL)/Cell Numbers [7, 17]: 0.150 (pg/mL)/Cell Numbers
production of TNFα in immune cells ([7]; summary of Table 10): reduced the production
histone deacetylase inhibition (histone deacetylases): inhibits histone deacetylases
IL-1β (pg/mL)/Cell Numbers [8, 12]: 0.00386 (pg/mL)/Cell Numbers
IL-1β (pg/mL)/Cell Numbers [8, 13]: 0.00402 (pg/mL)/Cell Numbers
IL-1β (pg/mL)/Cell Numbers [8, 14]: 0.00242 (pg/mL)/Cell Numbers
IL-1β (pg/mL)/Cell Numbers [8, 15]: 0.00242 (pg/mL)/Cell Numbers
IL-1β (pg/mL)/Cell Numbers [8, 16]: 0.00097 (pg/mL)/Cell Numbers
IL-1β (pg/mL)/Cell Numbers [8, 17]: 0.00067 (pg/mL)/Cell Numbers
production of IL-1β in immune cells ([8]; summary of Table 9): reduced the production
